From EP3848017A1, “ORAL CARE COMPOSITION CONTAINING INDOLE COMPONENTS FOR TREATING CARIES” (3M Innovative Properties Company, priority 2020, dated 2021)

Columns and labels:
[1] = system: in vitro human saliva microcosm biofilm; assay: Determination of Lactic Acid Release (LAR) after Permanent Exposure Procedure (LDH-NAD-PMS-MTT enzyme assay); type: cell-based; conditions: about 26 hours biofilm growth, 37 °C, vs untreated control TC0, negative number = release of lactic acid reduced
Protocol: To determine the metabolic activity of the biofilm sample, the accumulation of lactic acid in the supernatant (1.0 ml PBS-solution with 5% sucrose per each biofilm sample disc) was measured by using the Lactic acid dehydrogenase (LDH)- Nicotinamide-adenine-dinucleotide (NAD)-Phenazine Methosulphate (PMS) - Thiazolyl blue tetrazolium bromide (MTT) - enzyme assay. To ensure that only freshly produced lactic acid is determined, the biofilm samples were washed four times with 1.0 ml PBS solution for 30 sec each. After 30 min the accumulated amount of lactic acid in the supernatant was measured by analyzing 50 µl of the supernatant. The lactic acid was quantified by the lactic acid specific enzyme assay described above. Known correlation between measured enzyme activity and amount of lactic acid was used to translate measured enzyme activity into the amount of lactic acid present in sample of the supernatant. In accordance to the validation of the in vitro human saliva microcosm biofilm model, a compound should lower the lactic acid release in permanent application of at least 40 or at least 50 % in comparison to the untreated biofilm control. […] Bovine sample disks of about 10 x 10 mm (+/- 2mm) were incubated in a 24 well plate containing 1.8 ml medium in an incubator at 37°C and 60 rpm circular movement. The treatment composition described below were added by pipetting and removed by a suction pump. • Day 1: Four-hours inoculation of bovine sample disks with saliva-mcm media (MCM = mucine containing medium plus 1 % sucrose) at 37 °C (without active substance). • Fresh medium (MCM-1% sucrose) containing the respective amounts of indole component as given in Table 2. This Treatment Composition was used for another 3-hour incubation. • Fresh medium (MCM-1% sucrose and Treatment Composition) for storage for about 14h at 37 °C. • Day 2: Fresh medium (MCM-1% sucrose and Treatment Composition) for 2-hour incubation. • Fresh medium (MCM-1% sucrose and Treatment Composition) for another 2-hour incubation. […]

[2] = system: lactic acid producing bacteria in an oral biofilm; conditions: qualitative statement; amino acids, as described in EP 18183601.6; cited from earlier work

SMILES | reducing the lactic-acid release of bacteria in a biofilm [2] | also measured
O=C(O)CCc1c[nH]c2ccccc12 [TC1 - IA1, Indole-3-propionic acid] | – | inhibition at 0.073 % ([1]; Indole 0.073 wt.% in MCM-1% sucrose): 95.3%
COc1ccc2[nH]cc(CC(=O)O)c2c1 [TC2 - IA2, 5-Methoxy-3-Indoleacetic acid] | – | inhibition at 0.07 % ([1]; Indole 0.07 wt.% in MCM-1% sucrose): 87.8%
O=C(O)Cc1c[nH]c2ccccc12 [TC3 - IA3, Indole acetic acid] | – | inhibition at 0.1 % ([1]; Indole 0.1 wt.% in MCM-1% sucrose): 78%
N=C(N)NCCC[C@H](N)C(=O)O [arginine] | not effective | –
N[C@@H](CC(=O)O)C(=O)O [aspartic acid] | not effective | –
NC(=O)CC[C@H](N)C(=O)O [glutamine] | not effective | –
NCC(=O)O [glycine] | useful | –
N[C@@H](Cc1c[nH]cn1)C(=O)O [histidine] | not effective | –
CC[C@H](C)[C@H](N)C(=O)O [isoleucine] | useful | –
CC(C)C[C@H](N)C(=O)O [leucine] | useful | –
NCCCC[C@H](N)C(=O)O [lysine] | useful | –
CSCC[C@H](N)C(=O)O [methionine] | useful | –
N[C@@H](Cc1ccccc1)C(=O)O [phenylalanine] | useful | –
O=C(O)[C@@H]1CCCN1 [proline] | not effective | –
N[C@@H](CO)C(=O)O [serine] | useful | –
C[C@@H](O)[C@H](N)C(=O)O [threonine] | useful | –
N[C@@H](Cc1c[nH]c2ccccc12)C(=O)O [tryptophan] | useful | –
N[C@@H](Cc1ccc(O)cc1)C(=O)O [tyrosine] | not effective | –
CC(C)[C@H](N)C(=O)O [valine] | useful | –
